Test results from PMC5402281, “Functional, thermodynamics, structural and biological studies of in silico-identified inhibitors of Mycobacterium tuberculosis enoyl-ACP(CoA) reductase enzyme” (Scientific Reports, 2017).
Read-outs that look alike come from different tables or passages of the source. Marks after values point to notes of the source that are not given here.

Tests used:
M. tuberculosis H37Rv = test: microbe, parasite or virus in culture; format: cell-based; settings: Mycobacterium tuberculosis, 216 h, 7 days + 48 h resazurin, read-out: MIC H37Rv
[1] = system: M. tuberculosis H37Rv in infected RAW 264.7 macrophages; test: Intracellular activity in M. tuberculosis-infected macrophages (CFU); format: cell-based, Mycobacterium tuberculosis; settings: 5 μM; for decrease in CFU counts compared to early control / decrease in CFU counts compared to untreated late control: 5 days; for Mean log CFU/well ± SEM: 5 days of incubation
MtInhA [2] = target: T1, MtInhA (Mycobacterium tuberculosis, UniProt P9WGR1); test: MtInhA enzyme inhibition by steady-state kinetics (NADH oxidation at 340 nm); format: biochemical; settings: for inhibitory activity towards MtInhA: IC50 screening; for mode of inhibition with respect to NADH / mode of inhibition with respect to DD-CoA: Lineweaver-Burk plot; for IC50: NADH 60 μM, DD-CoA 45 μM, 25 °C, Pipes pH 7.0, read-out: IC50; for Ki: EI complex; for Ki DD-CoA Kii / Ki NADH Kii: ESI complex
T1 construct: made in house
Experimental: In order to assess the relative potency of the compounds, inhibition studies were performed by steady-state kinetic studies using a UV-2550 UV/Visible spectrophotometer (Shimadzu^©), monitoring the NADH oxidation at 340 nm (εβ-NADH = […]), in the forward direction. Experiments were performed at 25 °C, in 100 mM Pipes pH 7.0 and were started with the addition of the 2.2 μM MtInhA to a total reaction volume of 500 μL, and monitoring the change in absorbance for 1 min. […] This is needed as IC50 and classical competitive, non-competitive and uncompetitive inhibition modes follow a rapid equilibrium process. Accordingly, MtInhA (2.2 μM) was pre-incubated with inhibitor (10 μM), aliquots were taken at different times and added to the reaction mixture containing NADH (60 μM) and DD-CoA (45 μM), and initial velocity measurements were plotted as a function of time of pre-incubation[6]. Control experiments were carried out pre-incubating MtInhA (2.2 μM) with DMSO (5%) in the absence of inhibitors, and initial velocity measured as a function of time of pre-incubation[6].
The IC50 value, which defines the concentration of inhibitor required to […], was calculated for each compound. The maximal rate for the enzyme reaction was determined in the absence of inhibitor, in the presence of fixed non-saturating concentration of NADH (60 μM ≅ Km) and DD-CoA (45 μM ≅ Km)[10][11][14]. The reaction velocity was analyzed as the percentage of inhibition as a function of inhibitor concentration and data were fitted to Eq 1.
The most promising compounds were further evaluated to assess the inhibition profile and to determine the inhibition constant (Ki). Initial rates were measured as a function of NADH concentration (10–160 μM) at fixed non-saturating DD-CoA concentration (45 μM) and fixed-varied inhibitor concentrations (0.5–120 μM). The Ki values towards NADH were calculated using the uncompetitive equation (Eq. 2) for compounds Labio_6 and Labio_16, in which [I] is the inhibitor concentration, [S] is the substrate concentration, Km and Vmax are, respectively, the Michaelis-Menten constant and maximum velocity, and Kii is the overall inhibition constant for the ESI complex. The Ki of Labio_03 was determined previously.
For compounds Labio_2, Labio_11, Labio_15 and Labio_17, the Ki values with respect to NADH were calculated using Eq. 3, which describes a non-competitive inhibition, where [I] is the inhibitor concentration, [S] is the substrate concentration, Km and Vmax are, respectively, the Michaelis-Menten constant and maximum velocity, Kii is the overall inhibition constant for the ESI complex and Kis is the overall inhibition constant for the EI complex.
Inhibition studies were also carried out in the presence of fixed non-saturating concentration of NADH (60 μM) and fixed-varied inhibitor concentrations (0.5–120 μM), when DD-CoA was the variable substrate (15–135 μM). For compounds Labio_2, Labio_6, and Labio_16, the inhibition constants for the DD-CoA substrate were determined using Eq. 3 for the non-competitive mode of inhibition. For compounds Labio_11, Labio_15 and Labio_17, the Ki for this substrate were calculated from data fitting to the equation for competitive inhibition (Eq. 4), in which [I] is the inhibitor concentration, [S] is the substrate concentration, Km and Vmax are, respectively, the Michaelis-Menten constant and maximum velocity, and Kis is the overall inhibition constant for the EI complex.

[3] = target: T2, MtInhA:NADH binary complex (Mycobacterium tuberculosis, UniProt P9WGR1); test: biochemical; format: binding; settings: for Kd: 25 °C (298.15 K); for ΔG: estimated from ΔH and ΔS (Eq. 7); for ΔH / ΔS: van't Hoff analysis, 15–30 °C
T2 construct: made in house

MtInhA [4] = target: T1, MtInhA; set-up: method as in PMID 23889525; settings: ESI complex; determined previously ref 12; cited from earlier work
[5] = varied DD-CoA 15–135 μM, fixed NADH 60 μM, read-out: Ki DD-CoA Kis
[6] = varied DD-CoA 15–135 μM, fixed NADH 60 μM
[7] = varied NADH 10–160 μM, fixed DD-CoA 45 μM, read-out: Ki NADH Kis
[8] = varied NADH 10–160 μM, fixed DD-CoA 45 μM

T1 sequence (P9WGR1 whole entry, looked up): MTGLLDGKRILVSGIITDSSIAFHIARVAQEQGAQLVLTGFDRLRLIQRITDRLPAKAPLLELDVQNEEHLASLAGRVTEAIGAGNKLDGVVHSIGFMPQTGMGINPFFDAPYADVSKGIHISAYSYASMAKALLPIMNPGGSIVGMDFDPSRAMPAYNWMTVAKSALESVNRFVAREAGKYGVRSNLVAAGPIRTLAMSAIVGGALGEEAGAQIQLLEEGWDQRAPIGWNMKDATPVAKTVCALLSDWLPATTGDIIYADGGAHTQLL
T2 sequence (P9WGR1 whole entry, looked up, one chain of several): as the sequence (P9WGR1 whole entry, looked up) above

For `NNC(=O)c1ccncc1` [INH, Isoniazid], the MIC (M. tuberculosis H37Rv) was 0.31 µg/mL, the “decrease in CFU counts compared to early control” value [1] was 1.7 log10 and the “decrease in CFU counts compared to untreated late control” value [1] was 2.3 log10. The “Mean log CFU/well ± SEM” value [1] was 2.4 ± 0.1***^+++ log CFU/well.

With `O=C(Cc1csc(-c2ccccn2)n1)Nc1ccccc1Oc1ccccc1` [Labio_1] the “inhibitory activity towards MtInhA” value (MtInhA [2]) was “no inhibitory activity” and the MIC (M. tuberculosis H37Rv) was greater than 10 µg/mL.

In the case of `Cc1nc([C@H](C)NC(=O)c2ccc3oc(Cc4ccccc4F)nc3c2)cs1` [Labio_2], the “mode of inhibition with respect to NADH” value (MtInhA [2]; fixed DD-CoA 45 μM) is reported as “non-competitive”, the “mode of inhibition with respect to DD-CoA” value (MtInhA [2]; fixed NADH 60 μM) is reported as “non-competitive” and the IC50 (MtInhA [2]) is reported as 18 ± 2 µM. The Ki (MtInhA [2]; [5]) was 0.7 ± 0.4 µM, the “Ki DD-CoA Kii” value (MtInhA [2]; [6]) was 0.7 ± 0.2 µM and the Ki (MtInhA [2]; [7]) was 2.3 ± 0.8 µM. The “Ki NADH Kii” value (MtInhA [2]; [8]) was 2.2 ± 0.6 µM, the Kd [3] was 2.2 ± 0.2 µM and the ΔG [3] was -7.7 ± 0.7 kcal/mol. The ΔH [3] was -37.7 ± 2.7 kcal/mol, the ΔS [3] was −100.5 ± 9.2 cal.mol^−1.K^−1 and the MIC (M. tuberculosis H37Rv) was greater than 100 µg/mL.

With `CCCOc1ccc(-c2nnc(NC(=O)Nc3ccccc3C)s2)cc1` [Labio_3] the “mode of inhibition with respect to NADH” value (MtInhA [2]; fixed DD-CoA 45 μM) was “uncompetitive”, the “mode of inhibition with respect to DD-CoA” value (MtInhA [2]; fixed NADH 60 μM) was “uncompetitive” and the IC50 (MtInhA [2]) was 19 ± 2 µM. The “Ki DD-CoA Kii” value (MtInhA [4]) was 20 ± 2 µM, the “Ki NADH Kii” value (MtInhA [4]) was 24 ± 3 µM and the Kd [3] was 4.4 ± 0.4 µM. It also gave a ΔG [3] of -7.4 ± 0.7 kcal/mol, a ΔH [3] of -27.8 ± 1.8 kcal/mol and a ΔS [3] of −68.5 ± 6.3 cal.mol^−1.K^−1. It also gave an MIC (M. tuberculosis H37Rv) of 11.2 µg/mL.

For `COc1ccc(CCC(=O)Nc2nn3cc(-c4ccccc4)nc3s2)cc1` [Labio_6], the “mode of inhibition with respect to NADH” value (MtInhA [2]; fixed DD-CoA 45 μM) was “uncompetitive”, the “mode of inhibition with respect to DD-CoA” value (MtInhA [2]; fixed NADH 60 μM) was “non-competitive” and the IC50 (MtInhA [2]) was 9.8 ± 0.9 µM. For the same molecule, the Ki (MtInhA [2]; [5]) was 0.7 ± 0.2 µM, the “Ki DD-CoA Kii” value (MtInhA [2]; [6]) was 0.7 ± 0.1 µM and the “Ki NADH Kii” value (MtInhA [2]; [8]) was 1.8 ± 0.2 µM. The Kd [3] was 3.1 ± 0.4 µM, the ΔG [3] was -7.6 ± 0.7 kcal/mol and the ΔH [3] was -44.7 ± 3.6 kcal/mol. For the same molecule, the ΔS [3] was −124.2 ± 12.3 cal.mol^−1.K^−1 and the MIC (M. tuberculosis H37Rv) was greater than 10 µg/mL.

With `Cc1cccc(NC(=O)/C(C#N)=C/c2ccc(OCc3ccccc3)cc2)n1` [Labio_7] the “inhibitory activity towards MtInhA” value (MtInhA [2]) was “no inhibitory activity” and the MIC (M. tuberculosis H37Rv) was greater than 10 µg/mL.

For `Cc1ccc(N2C[C@@H](c3nc(-c4ccc(OC(C)C)cc4)no3)CC2=O)cc1C` [Labio_8], the “inhibitory activity towards MtInhA” value (MtInhA [2]) was “no inhibitory activity” and the MIC (M. tuberculosis H37Rv) was greater than 10 µg/mL.

For `Cc1cc(NC(=O)Cc2csc(-c3ccsc3)n2)ccc1Br` [Labio_9], the “inhibitory activity towards MtInhA” value (MtInhA [2]) was “no inhibitory activity” and the MIC (M. tuberculosis H37Rv) was greater than 10 µg/mL.

With `COc1ccc(-c2n[nH]cc2/C=N\NC(=O)c2cc(C)nc3c(C)cccc23)cc1` [Labio_11] the “mode of inhibition with respect to NADH” value (MtInhA [2]; fixed DD-CoA 45 μM) was “non-competitive”, the “mode of inhibition with respect to DD-CoA” value (MtInhA [2]; fixed NADH 60 μM) was “competitive” and the IC50 (MtInhA [2]) was 87 ± 3 µM. The Ki (MtInhA [2]; [5]) was 27 ± 3 µM, the Ki (MtInhA [2]; [7]) was 44 ± 14 µM and the “Ki NADH Kii” value (MtInhA [2]; [8]) was 41 ± 6 µM. The Kd [3] was 17.9 ± 1.1 µM, the ΔG [3] was -6.5 ± 0.9 kcal/mol and the ΔH [3] was -18.7 ± 1.7 kcal/mol. It also gave a ΔS [3] of −40.9 ± 5.9 cal.mol^−1.K^−1 and an MIC (M. tuberculosis H37Rv) greater than 100 µg/mL.

In the case of `O=C(CNC(=O)c1ccc2c(c1)OCO2)Nc1ccc(Nc2ccccc2)cc1` [Labio_12], the “inhibitory activity towards MtInhA” value (MtInhA [2]) is reported as “no inhibitory activity” and the MIC (M. tuberculosis H37Rv) is reported as greater than 100 µg/mL.

With `Cc1ccc(N2C[C@@H](c3nc(-c4ccc(OC(C)C)cc4)no3)CC2=O)c(C)c1` [Labio_13] the “inhibitory activity towards MtInhA” value (MtInhA [2]) was “no inhibitory activity” and the MIC (M. tuberculosis H37Rv) was greater than 10 µg/mL.

In the case of `CCN(CC)Cc1cc(-c2ccnc3cc(Cl)ccc23)ccc1O` [Labio_15], the “mode of inhibition with respect to NADH” value (MtInhA [2]; fixed DD-CoA 45 μM) is reported as “non-competitive”, the “mode of inhibition with respect to DD-CoA” value (MtInhA [2]; fixed NADH 60 μM) is reported as “competitive” and the IC50 (MtInhA [2]) is reported as 83 ± 2 µM. The Ki (MtInhA [2]; [5]) was 74 ± 8 µM, the Ki (MtInhA [2]; [7]) was 110 ± 26 µM and the “Ki NADH Kii” value (MtInhA [2]; [8]) was 110 ± 11 µM. It also gave a Kd [3] of 29.4 ± 2.1 µM, a ΔG [3] of -6.2 ± 1.5 kcal/mol and a ΔH [3] of -9.6 ± 0.8 kcal/mol. For the same molecule, the ΔS [3] was −11.5 ± 2.8 cal.mol^−1.K^−1 and the MIC (M. tuberculosis H37Rv) was 25 µg/mL.

With `COc1cccc(-c2cccc(NC(=O)C3CCN(CC=C(C)C)CC3)c2)c1` [Labio_20] the “inhibitory activity towards MtInhA” value (MtInhA [2]) was “no inhibitory activity” and the MIC (M. tuberculosis H37Rv) was 23.8 µg/mL.

With `CO[C@H]1/C=C/O[C@@]2(C)Oc3c(C)c(O)c4c(O)c(c(/C=N/N5CCN(C)CC5)c(O)c4c3C2=O)NC(=O)/C(C)=C\C=C\[C@H](C)[C@H](O)[C@@H](C)[C@@H](O)[C@@H](C)[C@H](OC(C)=O)[C@@H]1C` [Rifampin] the “decrease in CFU counts compared to early control” value [1] was 1.7 log10, the “decrease in CFU counts compared to untreated late control” value [1] was 2.3 log10 and the “Mean log CFU/well ± SEM” value [1] was 2.4 ± 0.1***^+++ log CFU/well.
